Experimental findings from article PMC8205030, “Methoxy and bromo scans on N-(5-methoxyphenyl) methoxybenzenesulphonamides reveal potent cytotoxic compounds, especially against the human breast adenocarcinoma MCF7 cell line” (Journal of Enzyme Inhibition and Medicinal Chemistry, 2021) are described below.

In brackets after ≈: the same amount, converted by molar mass.

The subject of series [1] is microtubule network of HT-29 cells. In words: Immunofluorescence of microtubule network, HT-29. The following applies: HT-29, 175 nM, 72 h, confocal microscopy. The class given is cell-based, human. As to the method: (§1) MCF7, HeLa, and HT-29 cells were grown on round glass coverslips coated with poly-L-lysine (12 mm diameter). To reach appropriate cell confluence, coverslips were manipulated in 6-well plates (3 coverslips/well) seeding 3 ml/well of cells in the exponential growth phase at 2 × 10^4 cells/mL. After 24 h incubation, cells were treated with compound 25 at 175 nM and incubated for 72 h. Cells were washed with PBS, fixed with 4% formaldehyde in PBS for 10 min, permeabilized with 0.5% Triton X-100 (Boehringer Mannheim, Ingelheimam Rhein, Germany) in PBS for 10 min, and blocked with 10% BSA in PBS for 30 min. Then, coverslips were incubated with anti-α-tubulin mouse monoclonal antibody (diluted 1:200 in 3% BSA/PBS) (Sigma-Aldrich Co.) and anti-SQSTM1/p62 rabbit monoclonal antibody (diluted 1:100 in 3% BSA/PBS) (Abcam) for 1 h 30 min. After PBS washing, coverslips were incubated with fluorescent secondary antibodies Alexa Fluor 488 goat anti-mouse IgG and Alexa Fluor 594 anti-rabbit (both diluted 1:400 in 1% BSA/PBS) (Molecular Probes, Invitrogen, Thermo Fischer Scientific) for 1 h in darkness. […] Cells were analysed by confocal microscopy using a LEICA SP5 microscope DMI-6000V model coupled to a LEICA LAS AF software computer.

The subject of series [2] is microtubule network of HeLa cells. In words: Immunofluorescence of microtubule network, HeLa. The class given is cell-based, human. The following applies: 175 nM, 72 h, confocal microscopy. As for the experimental part: as §1
The subject of another series is p-62 in HT-29 cells. In words: Western blot of autophagosome marker p-62, HT-29. The format is cell-based, human. Particulars: HT-29, 175 nM, 24 h. As to the method:
(§2) MCF7, HeLa and HT-29 cells in an exponential growth phase at 2 × 10^4 cells/mL were seeded in Petri dishes (20 × 100 mm) (10 ml/dish). After 24 h incubation, cells were treated with compound 25 at 175 nM, and the levels of p-62 in treated and untreated cells were measured at 24 h post-treatment. The culture medium was removed, cells were washed with PBS and resuspended in 1 ml lysis buffer (50 mM Tris, 130 mM NaCl, 1 mM EDTA, 1% Triton X-100) containing protease inhibitors (Complete, Roche Applied Science, Indianapolis). Cells were harvested and incubated with lysis buffer for 30 min at 4 °C in constant agitation. Cell extracts were centrifuged at 12,000 rpm for 15 min at 4 °C and the supernatants were stored at −80 °C. Protein concentrations were determined using Bradford (BioRad, Hercules, CA) method taking BSA (Bovine Serum Albumin) as standard. Protein extracts were used for electrophoresis mixing with loading buffer (4% SDS, 0.05% bromophenol blue, 20% glycerine, 2% β-mercaptoethanol, and Tris 100 mM at pH 6.8). Proteins were then denatured at 95 °C for 7 min. Protein samples (50 μg/lane) were subjected to electrophoresis on 8% acrylamide gel and SDS-PAGE running buffer at constant voltage (140 V). Then, acrylamide gels were transferred to a PVDF membrane (Merck Millipore, Burlington, Massachusetts, USA) using a semi-dry transfer system for 30 min at constant voltage (15 V). […]
On the technique in general: In western blotting, separated proteins are transferred to a membrane and probed.

A further series concerns p-62 in HeLa cells. Briefly: Western blot of autophagosome marker p-62, HeLa. The following applies: 175 nM, 24 h. The format is cell-based, human. As to the method:
as §2

The nature of series [3]: Aqueous solubility (saturation shake-flask, UV). The format is physicochemical. Particulars: aqueous buffer, thermodynamic from solid, pH 7.0 phosphate buffer, room temperature.

For orientation: solubility means how much of the substance goes into solution per volume. Read a low solubility as a poorly soluble substance. Regarding `COc1ccc(S(=O)(=O)N(CC#N)c2cc(OC)c(Br)cc2OC)cc1` [Compound 25, N-(4-bromo-2,5-dimethoxyphenyl)-N-(cyanomethyl)-4-methoxybenzenesulphonamide], the “Effect on microtubule network” value in series [1] and in series [2] was “disrupted the microtubule network” throughout. In addition, the p-62 levels result in the series on p-62 in HT-29 cells and with p-62 in HeLa cells was “almost complete reduction in the expression of p-62” in each case. This molecule also gave a solubility at 48 h in series [3] of 1 µg/mL (≈ 2.27 µM).
